Series [1] can be described thus: Liver microsome stability, rat. It is filed as in vitro ADME, Sprague Dawley rat. From the text:
(§1) Metabolic stability assays are designed to measure the stability of a test compound in a variety of assay matrices from human and animal species. From a metabolism perspective, a drug would be relatively stable, have a small first-pass effect, and maintain an effective concentration in blood for a reasonable period of time. A microsomal preparation from the liver contains all CYP isozymes and other membrane-bound drug metabolizing enzymes which are responsible for the metabolism for the majority of drugs in humans. Metabolic stability in liver microsomes can determine half-life (T1/2) and intrinsic clearance (Clint). The determination of Clint may be useful to determine whether metabolism is the major elimination pathway when it is compared to total body clearance in vivo. For high metabolic stability in liver microsomes: […] Human, Sprague Dawley rat, and CD-1 mouse liver microsome samples were purchased from BD Gentest. An in vitro metabolic stability assay suitable for use in predicting first pass metabolism of the compounds useful in the methods of the invention is described in this example. […] 6 mM NADPH in 0.1 M K-phosphate buffer is prepared by dissolving 25.1 mg of NADPH tetrasodium salt in 5 mL of K-phosphate buffer. […] The plate is pre-incubated at 37° C. for 10 minutes. 15 μL of NADPH stock solution (6 mM) is added to the wells designated for Time 60 and timed. At 30 min, 15 min, and 5 min, 15 μL of NADPH stock solution (6 mM) is added to the wells. At the end of incubation, 135 μL of ACN containing IS is added to all the wells (60 min, 30 min, 15 min, 5 min and 0 min). Then 15 μL of NADPH stock solution (6 mM) is added to the wells designated as Time 0.
A general note: Liver microsomes are vesicles of endoplasmic reticulum, rich in cytochrome P450 enzymes.

Series [2] is described as follows: Liver microsome stability, human. It is filed as in vitro ADME.
Source text: as §1

Series [3] in a line: Liver microsome stability, mouse. The format is in vitro ADME, CD-1 mouse.
Source text: as §1

Series [4] in a line: Caco-2 permeability testing. It is filed as in vitro ADME, human. As to conditions: human; for Papp A→B at 90 min, 10 µM: Caco-2, pH 7.4, Caco-2, A-B, read-out: Permeability (second figure of Efflux/permeability), Papp (A-B); for Papp B→A at 90 min, 10 µM: Caco-2, pH 7.4, Caco-2, B-A, read-out: Efflux (first figure of Efflux/permeability), Papp (B-A). The method, boiled down: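 Caco-2 monolayers grown 21-27 days in MEM + 10% FBS + 1% NEAA; bidirectional transport (A-B, B-A) in HBSS with 25 mM HEPES, pH 7.4, 10 μM compound donor with 5 μM Lucifer Yellow as monolayer marker. Papp measured each direction, quantified against standard curve with internal standard; efflux ratio Papp(B-A)/Papp(A-B).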
For orientation: Caco-2 cells form a polarised layer with tight junctions and transporters.

With `Cn1nc(C(=O)NC2CCN(CCN3CCCC3)CC2)c2ccc(N3CCCCCC3)nc21` [compound 1597], the “rat liver microsome (RLM), % parent remaining” value in series [1] (after 15 min) is given as 57 % parent remaining; in series [1] (after 30 min) it was 25 % parent remaining; in series [1] (after 60 min), 14 % parent remaining. The “human liver microsome (HLM, % parent remaining)” value in series [2] (after 15 min) came out at 81 % parent remaining; in series [2] (after 30 min) it was 74 % parent remaining; in series [2] (after 60 min), 58 % parent remaining. The “mouse liver microsome (MLM), % parent remaining” value was found to be 67 % parent remaining in series [3] (after 15 min), 32 % parent remaining in series [3] (after 30 min) and 14 % parent remaining in series [3] (after 60 min). Further, the Papp A→B at 90 min, 10 µM in series [4] is 92 nm/s. Moreover, the Papp B→A at 90 min, 10 µM in series [4] was determined as 65 nm/s.

In the case of `Cn1nc(C(=O)NC2CCN(CCN3CCCCC3)CC2)c2ccc(N3CCCCCC3)nc21` [compound 1047], the “rat liver microsome (RLM), % parent remaining” value in series [1] (after 15 min) came to 44 % parent remaining; in series [1] (after 30 min), 18 % parent remaining; in series [1] (after 60 min) it was 10 % parent remaining. In addition, the “human liver microsome (HLM, % parent remaining)” value in series [2] (after 15 min) was found to be 78 % parent remaining; in series [2] (after 30 min), 62 % parent remaining; in series [2] (after 60 min) it was 34 % parent remaining. Further, the “mouse liver microsome (MLM), % parent remaining” value is given as 56 % parent remaining in series [3] (after 15 min), 29 % parent remaining in series [3] (after 30 min) and 12 % parent remaining in series [3] (after 60 min). The Papp A→B at 90 min, 10 µM in series [4] came out at 105 nm/s. For the same molecule, the Papp B→A at 90 min, 10 µM in series [4] came out at 76 nm/s.

`CCN1CCC(NC(=O)c2nn(C)c3nc(N4CCCCCC4)ccc23)CC1` [compound 1595]: the “rat liver microsome (RLM), % parent remaining” value in series [1] (after 15 min) was 67 % parent remaining; in series [1] (after 30 min) it was 46 % parent remaining; in series [1] (after 60 min) it was 8 % parent remaining. The figures for the “human liver microsome (HLM, % parent remaining)” value in series [2] (after 15 min), in series [2] (after 30 min) and in series [2] (after 60 min) were 73 % parent remaining, 45 % parent remaining and 14 % parent remaining, respectively. Besides, the figures for the “mouse liver microsome (MLM), % parent remaining” value in series [3] (after 15 min), in series [3] (after 30 min) and in series [3] (after 60 min) were 67 % parent remaining, 50 % parent remaining and 17 % parent remaining, respectively. In addition, the Papp A→B at 90 min, 10 µM in series [4] came out at 153 nm/s. Besides, the Papp B→A at 90 min, 10 µM in series [4] came out at 144 nm/s.

In the case of `CCN1CCC(NC(=O)c2nn(C)c3nc(N4CCCCCC4)ccc23)CC1` [EBP1595], the “rat liver microsome (RLM), % parent remaining” value came out at 67 % parent remaining in series [1] (after 15 min), 46 % parent remaining in series [1] (after 30 min) and 8 % parent remaining in series [1] (after 60 min). The “human liver microsome (HLM, % parent remaining)” value was 73 % parent remaining in series [2] (after 15 min), 46 % parent remaining in series [2] (after 30 min) and 14 % parent remaining in series [2] (after 60 min). Also, in series [2] (human vs rat liver, in words), the “liver stability predicted by in vitro PK profiles” value is on record as “higher stability in human liver vs rat liver”. For the same molecule, the entries for the “mouse liver microsome (MLM), % parent remaining” value in series [3] (after 15 min), in series [3] (after 30 min) and in series [3] (after 60 min) were 67 % parent remaining, 50 % parent remaining and 17 % parent remaining, respectively. Further, in series [4] (pH 7.4, Caco-2, Papp (B-A)/Papp (A-B), read-out: Efflux/Permeability ratio (desired <3)), the efflux ratio at 90 min, 10 µM was found to be 0.9.
